Measured values taken from PMC7567791 (Scientific Reports, 2020).

Target: T1, μ-OR (Homo sapiens, UniProt P35372)
T1 construct: expressed in transfected cells; host or cells: HEK293A parental, ΔGRK2, ΔGRK3, ΔGRK2/3 (and Δβ-arrestin1/2) cells
Assay type: cell-based

T1 sequence (P35372 whole entry): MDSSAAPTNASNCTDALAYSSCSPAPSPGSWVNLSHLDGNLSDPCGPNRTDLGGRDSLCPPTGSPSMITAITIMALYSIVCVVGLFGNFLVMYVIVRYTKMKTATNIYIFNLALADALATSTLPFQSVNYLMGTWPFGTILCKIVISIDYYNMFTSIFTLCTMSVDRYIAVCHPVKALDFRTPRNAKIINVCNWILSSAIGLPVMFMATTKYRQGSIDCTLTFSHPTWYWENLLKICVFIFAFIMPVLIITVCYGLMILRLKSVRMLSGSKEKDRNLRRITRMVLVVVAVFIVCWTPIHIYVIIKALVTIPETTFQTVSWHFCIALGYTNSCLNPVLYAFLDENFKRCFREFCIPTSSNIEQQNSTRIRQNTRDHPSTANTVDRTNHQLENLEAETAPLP

## C[C@@H](NC(=O)[C@@H](N)Cc1ccc(O)cc1)C(=O)NCC(=O)N(C)[C@@H](Cc1ccccc1)C(=O)NCCO [DAMGO, D-Ala(2)-mephe(4)-gly-ol(5))enkephalin]
  time of peak in β-arrestin2 recruitment to μ-OR-EYFP: 6 min
